Series [1] concerns L. donovani promastigotes. The series can be described thus: Leishmanicidal activity assay (alamarBlue), promastigotes. It counts as cell-based, Leishmania donovani. The note with it: for IC50: promastigote stage; for SI (CC50/IC50), L. donovani: promastigotes vs murine macrophages. As for the experimental part:
(§1) To perform the experiments, promastigotes of L. amazonensis (MHOM/BR/77/LTB0016) and L. donovani (MHOM/IN/90/GE1F8R) and epimastigote T. cruzi (Y strain) were employed. Leishmania species were cultured in Schneider’s medium (Sigma-Aldrich, Madrid, Spain) at 26 °C supplemented with 10% fetal bovine serum (VWR, Biowest, Nuaillé, France) as well as in RPMI 1640 medium (Gibco, Thermo Fisher, Madrid, Spain). Epimastigotes of T. cruzi were cultured in Liver Infusion Tryptose (LIT) medium supplemented with 10% fetal bovine serum at 26 °C. For the cytotoxicity assays, murine macrophage cell line J774A.1 (ATCC TIB-67) was maintained at 37 °C in a 5% CO2 atmosphere in RPMI 1640 medium supplemented with 10% fetal bovine serum.
(§2) Promastigote in logarithmic phase were used for plate preparation, and the in vitro antiprotozoal assay was performed in 96-well plates. The different fractions or compounds were serially diluted on the wells and 10^6 parasites/mL were finally added. The activity of the fraction was calculated by the alamarBlue® method. In addition, the active pure molecules were tested against the amastigote stage of L. amazonensis.
For orientation: Alamar Blue is a resazurin reagent that responds to reducing activity.

The subject of series [2] is intracellular amastigote stage of L. amazonensis. The series can be described thus: Amastigote activity assay (parasite rescue and transformation, alamarBlue). It counts as cell-based, Leishmania amazonensis. Particulars: for IC50: intracellular amastigote stage, read-out: L. amazonensis IC50 (µM ± SD); for SI (CC50/IC50), L. amazonensis amastigote: amastigotes vs murine macrophages; for fold more potent than the reference drug against L. amazonensis amastigotes: intracellular amastigote, vs miltefosine. As for the experimental part: as §2
The amastigote activity was performed according to Jain et al.. After allowing the transformation of rescued amastigotes to promastigotes, the activity was evaluated by AlamarBlue method. After incubation, the fluorescence was measured in a Perkin Elmer EnSpire spectrofluorometer and fluorescence was measured at emission peak 585 nm.

Series [3] in a line: Cytotoxicity assay (alamarBlue). The note with it: mouse, J774A.1 macrophage cell line; J774A.1, 24 h; read-out: Murine Macrophages CC50. Format: cell-based, murine. As for the experimental part: as §1
(§3) The cytotoxicity was evaluated using a macrophage cell line J774A.1 in RPMI medium. Macrophages were plated and at 10^5 macrophages/well and, subsequently, serial dilution of samples were added to the plates. After 24 h of incubation cell viability was determined by the alamarBlue® [28].

The test system of series [4] is L. amazonensis promastigotes. The series can be described thus: Leishmanicidal activity assay (alamarBlue), promastigotes. It counts as cell-based, Leishmania amazonensis. The note with it: for SI (CC50/IC50), L. amazonensis: promastigotes vs murine macrophages; for fold more potent than the reference drug against L. amazonensis / IC50: promastigote stage; for fold more potent than the reference drug against L. amazonensis: vs miltefosine; for IC50: read-out: L. amazonensis IC50 (µM ± SD). As for the experimental part:
as §1, §2

Series [5] concerns murine macrophage cell line J774A.1. The series can be described thus: Cytotoxicity assay (alamarBlue). Format: cell-based. As for the experimental part:
as §1, §3

Another series relates to T. cruzi epimastigotes. The series can be described thus: Trypanocidal capacity assay (alamarBlue), epimastigotes. Format: cell-based, Trypanosoma cruzi. Particulars: for IC50: epimastigote stage, read-out: T. cruzi IC50 (µM ± SD); for SI (CC50/IC50), T. cruzi: epimastigotes vs murine macrophages. As for the experimental part: as §1
For the evaluation against the epimastigote stage of T. cruzi, assays were performed following the same procedure mentioned in Section 3.5.1., modifying the density to 2 × 10^5 parasite/well and using LIT medium.

For series [6], the system named is L. amazonensis. The series can be described thus: Chromatin condensation determination (Hoechst 33342/propidium iodide). Particulars: IC90, 24 h. Format: cell-based, Leishmania amazonensis. As for the experimental part:
The detection of condensed chromatin, was performed using the Vybrant™ Apoptosis Assay Kit #5, Hoechst 33342/Propidium Iodide (Invitrogen, Carlsbad, CA, USA). Parasites were incubated with the IC90 of the pure compounds for 24 h, then collected and centrifuged. The cell pellet was resuspended in RPMI, added to a black plate and incubated with the Hoechst 33342 and the propidium iodide. Then the plate was protected from light for 20 min at 4 °C. The EVOS FL Cell Imaging System (Invitrogen, ThermoFisher, Carlsbad, CA, USA) was used to observe the cells, using the DAPI (Hoechst) and RFP (PI) Light Cubes.

The subject of a further series is T. cruzi. The series can be described thus: Measurement of ATP (Cell Titer-Glo). Format: cell-based, Trypanosoma cruzi. Particulars: IC90, 24 h. For orientation: Cellular ATP, detected with luciferase, serves as a proxy for viable cell number.
In series [7] the test system is L. amazonensis. The series can be described thus: Measurement of ATP (Cell Titer-Glo). It counts as cell-based, Leishmania amazonensis. The note with it: IC90, 24 h.
Procedure: To determine the ATP level of the parasites, the Cell Titer-Glo® Luminescent Cell Viability Assay (Promega, Madison, WI, USA) was used following the manufacturer’s instructions after incubation of the parasites with the calculated IC90 of the tested withanolides for 24 h.

A word on the IC50: it is the point on the concentration scale where inhibition reaches its midpoint. A word on the CC50: it is the concentration at which the toxic effect on the cells reaches its halfway point.

“And” between values parts separate entries of the source, which are not always exact repeats. Equal entries are not always repeated. Where two headings read alike, the source gives them in different places.

Turning to `CCCCCCCCCCCCCCCCOP(=O)([O-])OCC[N+](C)(C)C` [Miltefosine, reference compound], the 50% inhibitory concentration (IC50) stood at 1.35 µg/mL in [1] (Leishmania donovani, read-out: L. donovani IC50) and 3.12 ± 0.12 µM in series [2] (Leishmania amazonensis). In addition, the “SI (CC50/IC50), L. donovani” value in series [1] came to 21.81. Further, the “SI (CC50/IC50), L. amazonensis amastigote” value in series [2] is given as 23.13. The CC50 at 24 h in [3] was 29.4 µg/mL and 72.2 µM. Further, the “SI (CC50/IC50), L. amazonensis” value in series [4] stood at 11.14.

For witharistatin [Compound 3], the IC50 in series [1] (read-out: L. donovani IC50 (µM ± SD)) turned out to be 20.9 ± 1.33 µM. In addition, in series [2], the “SI (CC50/IC50), L. amazonensis amastigote” value worked out at 58.66; the concentration for half-maximal inhibition (IC50) was 0.209 ± 0.028 µM; the “fold more potent than the reference drug against L. amazonensis amastigotes” value came to 14.9 fold. Besides, the CC50 in [5] was 12.3 ± 1.16 µM. In addition, in series [4], the “fold more potent than the reference drug against L. amazonensis” value worked out at 2.3 fold and the IC50 was determined as 2.82 ± 0.07 µM. In the series with T. cruzi epimastigotes, the IC50 is 2.41 ± 0.11 µM and the “fold more potent than benznidazole against T. cruzi epimastigotes” value stood at 2.9 fold.

Turning to `CC1=C(CO)C(=O)O[C@@H]([C@@H](C)[C@H]2CC[C@H]3[C@@H]4C[C@H]5O[C@]56[C@@H](O)C=CC(=O)[C@]6(C)[C@H]4CC[C@]23C)C1` [Compound 1, withaferin A], the IC50 in series [1] (Leishmania donovani, read-out: L. donovani IC50 (µM ± SD)) turned out to be 13.2 ± 1.16 µM. In [1], the “SI (CC50/IC50), L. donovani” value was 0.91. Also, the IC50 in [2] (Leishmania amazonensis) is 0.055 ± 0.009 µM. For the same molecule, in [2], the “SI (CC50/IC50), L. amazonensis amastigote” value was 216.73 and the “fold more potent than the reference drug against L. amazonensis amastigotes” value turned out to be 56 fold. Besides, in series [3], the 50% cytotoxic concentration (CC50) at 24 h stood at 11.9 ± 1.08 µM. Also, the propidium iodide staining entry with L. amazonensis [6] is reported as “staining in red was observed”. The half-inhibitory concentration (IC50) in series [4] (Leishmania amazonensis) came out at 0.83 ± 0.07 µM. Besides, in [4], the “fold more potent than the reference drug against L. amazonensis” value was 7.8 fold and the “SI (CC50/IC50), L. amazonensis” value amounted to 14.36. Moreover, the ATP level entry in the series with T. cruzi is recorded as “slight decrease”. For the same molecule, the “total ATP level” value in the series on L. amazonensis [7] is “strong decrease”. Further, the IC50 in the series with T. cruzi epimastigotes (Trypanosoma cruzi) came to 1.02 ± 0.1 µM. In the series on T. cruzi epimastigotes, the “fold more potent than benznidazole against T. cruzi epimastigotes” value was found to be 6.8 fold and the “SI (CC50/IC50), T. cruzi” value amounted to 11.69.

Regarding `O=C(Cn1ccnc1[N+](=O)[O-])NCc1ccccc1` [Benznidazole], in series [3], the CC50 at 24 h is 104 µg/mL and 400 µM. The “SI (CC50/IC50), T. cruzi” value in the series on T. cruzi epimastigotes is recorded as 57.54.

Values taken from publication PMC6963971, “Withanolides from Withania aristata as Antikinetoplastid Agents through Induction of Programmed Cell Death” (Pathogens, 2019).
